Measured values as given in US20130203726A1, “FtsZ INHIBITORS AS POTENTIATORS OF BETA-LACTAM ANTIBIOTICS AGAINST METHICILLIN-RESISTANT STAPHYLOCOCCUS” (priority 2010, published 2013).
Where two headings read alike, the source gives them in different places.

Legend:
[1] = test system: MRSA COL; assay: Checkerboard assay (MIC, FIC index) against MRSA; format: cell-based, S. aureus
Text: (§1) The checkerboard method is the technique most frequently used to assess antimicrobial combinations in vitro. See Antibiotics in Laboratory Medicine Victor Lorian ed. 2005. The term. checkerboard refers to the pattern of microtiter wells formed by multiple dilutions of the two antimicrobials being tested in concentrations equal to, above and below their minimal inhibitory concentrations (MICs) against the organisms being tested. The checkerboard consists of columns in which each well contains the same amount of Drug A being two-fold diluted along the x-axis and rows in which each well contains the same amount of Drug B being two-fold diluted on the Y-axis. The result is that each well contains a unique combination of the two drugs being tested. Also tested is the antimicrobial activity of each agent singly.
(§2) The 96 well U-bottom polypropylene microtiter plates (Fisher Scientific, Pittsburgh, Pa.) were inoculated with 90 μl of bacterial cells (grown in Tryptic Soy Broth at 37° C. for 18 hours with rotary shaking) diluted in cation-adjusted Mueller Hinton broth to a final concentration of ˜5.5×10^5 CFU/mL.
(§3) β-lactam antibiotics were two-fold serially diluted along the Y-axis of 96-well U-bottom microtiter dishes (Fisher Scientific, Pittsburgh, Pa.) in microbiological growth media [brain heart infusion broth (BBL)]. FtsZ inhibitors were serially diluted along the X-axis of 96-well U-bottom microtiter dishes in microbiological growth media. The plates were inoculated with bacterial cells (grown in Trypticase Soy Broth at 37° C. for 18 hours with rotary shaking) to a final concentration of ˜5×10^5 CFU/mL. Test plates were incubated stationery at 37° C. for 22-24 hours.
(§4) The FIC index is most commonly used to report results of studies with antimicrobial combinations. In this method, the FIC for each drug is derived by dividing the concentration of that drug necessary to inhibit growth in a given combination by the MIC of the test organism for that drug alone. The FTC index (FICI) is then calculated by summing the separate FICs of the drugs present in that test well. Synergism is defined as an FTC index of 0.5.

[2] = test system: MRSA COL; assay: MRSA deep thigh infection model in neutropenic mice; format: in vivo, Staphylococcus aureus; settings: for reduction of bacterial burden per thigh: 24 hr
Method: Female mice (20-25 g) were rendered neutropenic via intraperitoneal injection of cyclophosphamide (Mead Johnson Pharmaceuticals) four days (150 mg/kg) and one day (100 mg/kg) prior to experimental infection. Neutropenic mice were infected on Day 0 via intramuscular thigh injection of 0.1 ml containing ˜1-2×10^6 CPU Staphylococcus aureus (strain B, MRSA COL) from freshly grown culture broth. Two hours post thigh infection, mice were randomized and groups were administered increasing doses of PC190723 (50, 100, 200 mg/kg orally (p.o.), t.i.d ([…]); equivalent to 150, 300, and 600 mg/kg/24 hr) in the absence or presence of imipenem/cilastatin (10 mg/kg/50 mg/kg subcutaneously (s.c.), t.i.d. ([…]); equivalent to 30 mg/kg/24 hr and 150 mg/ kg/24 hr). Assay control groups included non-infected, vehicle-treated mice, vehicle-treated baseline infected (t=0 hr) mice, vehicle-treated 24 hr infected (t=24 hr) mice, and linezolid ((Zyvox IV solution, Bell Medical; 40 mg/kg orally (p.o.), b.i.d. ([…]) equivalent to 80 mg/kg/24 hr).
Twenty four hours post the initiation of therapy, mice were sacrificed, thighs aseptically removed, placed in 4 ml sterile phosphate buffered saline (Fisher Scientific), and homogenized using a Polytron (Brinkmann Instruments). Homogenates were serially 100-fold diluted in 9.9 ml sterile saline and plated on Mannitol Salt Agar plates. Plates were incubated at 35° C. for 48 hours and colony forming units (CFU) of bacteria remaining per thigh were determined.

[3] = test system: MRSE CLB 26329; assay: Checkerboard assay (MIC, FIC index) against MRSE; format: cell-based, S. epidermidis
Text: as §1, §2, §3, §4

[4] = test system: MRSA COL strains bearing xylose-regulated antisense fragments corresponding to FtsZ, FtsA, or FtsW; format: cell-based, Staphylococcus aureus; settings: 50 mM xylose (antisense induced) versus no xylose, FtsZ-AS
Method: See Forsyth et al., 2002, Mol. Microbial 43:1387-1400 for details concerning plasmid and antisense interference construction. Strains were grown overnight in Luria Bertani (LB) Miller broth at 37° C. containing 34 μg/ml chloramphenicol. Assay plates were prepared by seeding 10^7 cells/ml of each culture into 48° C. cooled LB Miller agar containing 34 μg/ml chloramphenicol. To partially repress FtsZ expression, 50 mM xylose was supplemented to plates. This antisense inducer concentration modestly impairs growth of each strain equally, reflecting a 20% inhibitory growth concentration (i.e., xylose IC20˜50 mM).
The following antibiotics were then spotted on the surface of the plates: carbapenems, imipenem (12.8 μg) and ertapenem (51.2 μg); cephalosporins, cefepime (102.4 μg), ceftazidime (102.4 μg), and ceftriaxone (102.4 μg); and the β-lactam piperacillin (combined with the […] in a 8:1 molar ratio (25.6 μg). As a control, MRSA COL was identically tested but under conditions where no xylose was supplemented into the medium (i.e., non-repressed FtsZ) as well as by identically processing the MRSA COL strain transformed with pEPSA5 but lacking an antisense fragment (data not shown). As a control for the specificity of ftsZ, ftsA, and ftsW mutant susceptibility to β-lactams, the non-β-lactam cell wall antibiotic, vancomycin (0.8 μg) was additionally spotted. Plates were then incubated at 37° C. for 16 h and photographed.
The effect FtsZ, FtsA, or FtsW imparts on MRSA susceptibility to the above antibiotics was determined by comparing their zone of inhibition between plates supplemented with antisense inducer (50 mM xylose) versus those without xylose. Differential antibiotic zones of inhibition between FtsZ, FtsA, and FtsW antisense bearing strains grown under xylose induced versus non-induced conditions reflect Fts gene-dependent restoration of MRSA COL susceptibility to β-lactams.

[5] = FtsZ inhibitor in combination with amoxicillin, MRSA COL
[6] = FtsZ inhibitor in combination with cefazolin, MRSA COL
[7] = FtsZ inhibitor in combination with cefdinir, MRSA COL
[8] = FtsZ inhibitor in combination with cefazolin
[9] = FtsZ inhibitor in combination with cefepime, lowest achievable for PC190723

Q: With `NC(=O)c1c(F)ccc(OCc2nc3cc(Cl)cnc3s2)c1F` [PC190723] as the molecule, how does the “lower levels of imipenem required to inhibit growth” value ([1]; FtsZ inhibitor at FIC≦0.25 combined with imipenem, MRSA) read?
A: 16 fold

Q: What about the FICI [1, 5] of the same molecule?
A: 0.53

Q: And the FICI [1, 6]?
A: 0.38

Q: What about the FICI [1, 7] of the same molecule?
A: 0.31

Q: And the FICI ([1]; FtsZ inhibitor in combination with ertapenem at its clinical breakpoint (8 μg/ml), MRSA)?
A: 0.5

Q: And the FICI ([1]; FtsZ inhibitor in combination with imipenem at its clinical breakpoint (4 μg/ml), MRSA)?
A: 0.31

Q: What about the “FIC of the FtsZ inhibitor at which synergy with β-lactams was shown” value ([1]; MRSA) of the same molecule?
A: 0.25

Q: And the MIC ([1]; Staphylococcus aureus, agent alone, MRSA, read-out: minimal inhibitory concentration (MIC))?
A: 1 µg/mL

Q: What about the MIC ([1]; agent alone, MRSA, FIG. 5 legend, unit not given) of the same molecule?
A: 1.0

Q: And the “reduction of the effective inhibitory concentration of amoxicillin” value ([1]; combined with PC190723 at FIC=0.5, MRSA)?
A: ~32 fold

Q: What about the “antibacterial activity compared with linezolid” value ([2]; 10 mg/kg imipenem + 200 mg/kg PC190723, linezolid 40 mg/kg p.o. b.i.d.) of the same molecule?
A: approaching linezolid-like antibacterial activity

Q: What about the “reduction of bacterial burden per thigh” value ([2]; PC190723 50 mg/kg p.o. t.i.d. + imipenem 10 mg/kg s.c. t.i.d., FIG. 7A) of the same molecule?
A: −0.4 Log 10 CFU

Q: And the “reduction of bacterial burden per thigh” value ([2]; PC190723 100 mg/kg p.o. t.i.d. + imipenem 10 mg/kg s.c. t.i.d., FIG. 7A)?
A: −1.2 Log 10 CFU

Q: And the “reduction of bacterial burden per thigh” value ([2]; PC190723 100 mg/kg p.o. t.i.d. + imipenem 10 mg/kg s.c. t.i.d., FIG. 7B)?
A: −1.9 Log 10 CFU

Q: And the “reduction of bacterial burden per thigh” value ([2]; PC190723 200 mg/kg p.o. t.i.d. + imipenem 10 mg/kg s.c. t.i.d., FIG. 7A)?
A: −3.1 Log 10 CFU

Q: What about the “reduction of bacterial burden per thigh” value ([2]; PC190723 200 mg/kg p.o. t.i.d. + imipenem 10 mg/kg s.c. t.i.d., FIG. 7B) of the same molecule?
A: −2.6 Log 10 CFU

Q: And the “effect on MRSA COL bacterial burden in the thighs” value ([2]; monotherapy over 24 hr, imipenem 10 mg/kg s.c. t.i.d. or PC190723 50, 100, 200 mg/kg p.o. t.i.d., neutropenic mice)?
A: did not significantly alter

Q: And the “FIC of the FtsZ inhibitor at which synergy with β-lactams was shown” value [3]?
A: 0.25

Q: What about the “lower levels of imipenem required to inhibit growth” value ([3]; FtsZ inhibitor at FIC≦0.25 combined with imipenem) of the same molecule?
A: 32 fold

Q: And the FICI [3, 8]?
A: 0.31

Q: What about the FICI [3, 9] of the same molecule?
A: 0.28

Q: And the FICI ([3]; FtsZ inhibitor in combination with ertapenem at its clinical breakpoint (8 μg/ml))?
A: 0.5

Q: And the FICI ([3]; FtsZ inhibitor in combination with imipenem at its clinical breakpoint (4 μg/ml))?
A: 0.31

Q: And the MIC ([3]; Staphylococcus epidermidis, agent alone, read-out: minimal inhibitory concentration (MIC))?
A: 1 µg/mL

Q: What about the MIC ([3]; agent alone, FIG. 5 legend, unit not given) of the same molecule?
A: 1.0

Q: With `CC[C@H]1OC(=O)[C@H](C)[C@@H](O[C@H]2C[C@@](C)(OC)[C@@H](O)[C@H](C)O2)[C@H](C)[C@@H](O[C@@H]2O[C@H](C)C[C@H](N(C)C)[C@H]2O)[C@](C)(O)C[C@@H](C)CN(C)[C@H](C)[C@@H](O)[C@]1(C)O` [azithromycin] as the molecule, how does the “change of susceptibility (zone of inhibition) on partial genetic inactivation of FtsZ, FtsA or FtsW” value [4] read?
A: none of the FtsZ-AS, FtsA-AS, or FtsW-AS strains demonstrated altered hypersensitivity

Q: Which “change of susceptibility (zone of inhibition) on partial genetic inactivation of FtsZ, FtsA or FtsW” value [4] does the source give for `C/C=C/C/C=C/CCC(=O)[C@H]1O[C@H]1C(N)=O` [cerulenin] here?
A: none of the FtsZ-AS, FtsA-AS, or FtsW-AS strains demonstrated altered hypersensitivity

Q: How did the “change of susceptibility (zone of inhibition) on partial genetic inactivation of FtsZ, FtsA or FtsW” value [4] turn out when `O=C(O)c1cn(C2CC2)c2cc(N3CCNCC3)c(F)cc2c1=O` [ciprofloxacin] was run?
A: none of the FtsZ-AS, FtsA-AS, or FtsW-AS strains demonstrated altered hypersensitivity

Q: How did the “change of susceptibility (zone of inhibition) on partial genetic inactivation of FtsZ, FtsA or FtsW” value [4] turn out when `CC(=O)NC[C@H]1CN(c2ccc(N3CCOCC3)c(F)c2)C(=O)O1` [linezolid] was run?
A: none of the FtsZ-AS, FtsA-AS, or FtsW-AS strains demonstrated altered hypersensitivity

Q: For `COc1cc(Cc2cnc(N)nc2N)cc(OC)c1OC` [trimethoprim], which “change of susceptibility (zone of inhibition) on partial genetic inactivation of FtsZ, FtsA or FtsW” value [4] is on record?
A: none of the FtsZ-AS, FtsA-AS, or FtsW-AS strains demonstrated altered hypersensitivity

Q: Which “change of susceptibility (zone of inhibition) on partial genetic inactivation of FtsZ, FtsA or FtsW” value [4] does the source give for `CN[C@H](CC(C)C)C(=O)N[C@H]1C(=O)N[C@@H](CC(N)=O)C(=O)N[C@H]2C(=O)N[C@H]3C(=O)N[C@H](C(=O)N[C@H](C(=O)O)c4cc(O)cc(O)c4-c4cc3ccc4O)[C@H](O)c3ccc(c(Cl)c3)Oc3cc2cc(c3O[C@@H]2O[C@H](CO)[C@@H](O)[C@H](O)[C@H]2O[C@H]2C[C@](C)(N)[C@H](O)[C@H](C)O2)Oc2ccc(cc2Cl)[C@H]1O` [vancomycin] here?
A: none of the FtsZ-AS, FtsA-AS, or FtsW-AS strains demonstrated altered hypersensitivity

Q: For Zantrin Z3, which “lower levels of cefazolin required to inhibit growth” value ([1]; FtsZ inhibitor at FIC≦0.25 combined with cefazolin, MRSA) is on record?
A: 16 fold

Q: What about the FICI [1, 5] of the same molecule?
A: no synergy was detected

Q: And the FICI [1, 6]?
A: 0.25

Q: What about the FICI [1, 7] of the same molecule?
A: 0.5

Q: What about the FICI ([1]; FtsZ inhibitor in combination with cefepime, MRSA COL) of the same molecule?
A: 0.25

Q: What about the FICI ([1]; FtsZ inhibitor in combination with ceftazidime, MRSA COL) of the same molecule?
A: 0.28

Q: What about the “minimal inhibitory concentration (MIC)” value ([1]; agent alone, MRSA) of the same molecule?
A: 8−16.0 μg/ml

Q: What about the “lower levels of cefazolin required to inhibit growth” value ([3]; FtsZ inhibitor at FIC≦0.25 combined with cefazolin) of the same molecule?
A: 16 fold

Q: What about the FICI ([3]; FtsZ inhibitor in combination with amoxicillin) of the same molecule?
A: 0.28

Q: What about the FICI [3, 8] of the same molecule?
A: 0.31

Q: What about the FICI ([3]; FtsZ inhibitor in combination with cefdinir) of the same molecule?
A: 0.27

Q: And the FICI [3, 9]?
A: 0.16

Q: What about the FICI ([3]; FtsZ inhibitor in combination with ceftazidime) of the same molecule?
A: 0.50

Q: What about the “minimal inhibitory concentration (MIC)” value ([3]; agent alone) of the same molecule?
A: 8−16.0 μg/ml

Q: What about the “fraction of normal amoxicillin concentration needed to display MRSE efficacy” value ([3]; amoxicillin paired with Z3) of the same molecule?
A: 1/16

Q: What about the “reduced cefdinir concentration to restore anti-MRSE activity” value ([3]; cefdinir paired with Z3) of the same molecule?
A: 64 fold
